Assay: binding assay as described in U.S. Pat. No. 5,859,188 (Geary, et al., 1999): displacement of a radiolabelled ligand
Conditions: percent displacement of a radiolabelled ligand at 25 micromolar
Experimental: Selected compounds were evaluated for their anti-parasitic activity in a binding assay as described in U.S. Pat. No. 5,859,188 (Geary, et al., 1999). Results of the evaluations are given in Table 2 wherein “% Inhibition” means percent displacement of a radiolabelled ligand at 25 micromolar as described.

Row | Compound | % Inhibition
1 | O=C(CN1CCCCC1)Nc1sc2c(c1C(=O)c1ccc(Cl)cc1)CCOC2 [Compound 1, N-[3-(4-chlorobenzoyl)-4,7-dihydro-5H-thieno[2,3-c]pyran-2-yl]-2-piperidin-1-ylacetamide] | 93–99%
2 | O=C(CN1CCCCC1)Nc1sc2c(c1C(O)c1ccc(Cl)cc1)CCOC2 (stereo not shown) [Compound 2, N-{3-[(4-chlorophenyl)(hydroxy)methyl]-4,7-dihydro-5H-thieno[2,3-c]pyran-2-yl}-2-piperidin-1-ylacetamide] | 85–95%
3 | O=C(CN1CCCC(O)C1)Nc1sc2c(c1C(=O)c1ccc(Cl)cc1)CCOC2 (stereo not shown) [Compound 3, N-[3-(4-chlorobenzoyl)-4,7-dihydro-5H-thieno[2,3-c]pyran-2-yl]-2-(3-hydroxypiperidin-1-yl)acetamide] | 96–97%
4 | O=C(CN1CCCC(O)C1)Nc1sc2c(c1C(O)c1ccc(Cl)cc1)CCOC2 (stereo not shown) [Compound 4, N-{3-[(4-chlorophenyl)(hydroxy)methyl]-4,7-dihydro-5H-thieno[2,3-c]pyran-2-yl}-2-(3-hydroxypiperidin-1-yl)acetamide] | 72–84%
5 | O=C(CN1CCCC(O)C1)Nc1sc2c(c1C(=O)c1ccco1)CCSC2 (stereo not shown) [Compound 10] | 21–38%
6 | O=C(CN1CCCC(O)C1)Nc1sc2c(c1C(O)c1ccc(Cl)cc1)CCSC2 (stereo not shown) [Compound 20] | 86–88%
7 | O=C(CN1CCCCCC1)Nc1sc2c(c1C(O)c1ccc(Cl)cc1)CCSC2 (stereo not shown) [Compound 24] | 11–58%
8 | Cc1ccc(C(=O)c2c(NC(=O)CN3CCCC(O)C3)sc3c2CCSC3)cc1 (stereo not shown) [Compound 28] | 11–79%
9 | O=C(CN1CCCC(O)C1)Nc1sc2c(c1C(=O)c1cccc(C(F)(F)F)c1)CCSC2 (stereo not shown) [Compound 33] | 92–94%
10 | O=C(CN1CCCCC1)Nc1sc2c(c1C(=O)c1cccs1)CCSC2 [Compound 37] | 0–66%
11 | Cc1ccc(C(O)c2c(NC(=O)CN3CCCC(O)C3)sc3c2CCSC3)cc1 (stereo not shown) [Compound 40] | 100%
12 | O=C(CN1CCCC(O)C1)Nc1sc2c(c1C(O)c1cccs1)CCSC2 (stereo not shown) [Compound 49] | 46–55%
13 | O=C(CN1CCCC(O)C1)Nc1sc2c(c1C(=O)c1ccc(F)cc1)CCSC2 (stereo not shown) [Compound 53] | 19–20%
14 | O=C(CN1CCCC(O)C1)Nc1sc2c(c1C(O)c1ccc(F)cc1)CCSC2 (stereo not shown) [Compound 54] | 93–97%
15 | O=C(CN1CCCC(O)C1)Nc1sc2c(c1C(=O)c1ccc(F)c(F)c1)CCSC2 (stereo not shown) [Compound 55] | 100%
16 | O=C(CN1CCCCC1)Nc1sc2c(c1C(=O)c1cccc(F)c1)CCSC2 [Compound 56] | 99–100%

Reference: patent US7071215B2 (Pharmacia & Upjohn Company LLC, priority 2002, dated 2006)
